For one series, the system named is cancer cells. The series is described as follows: Growth inhibition, MTT/WST assay, antisense backbones. In kind it is cell-based. The note with it: maximal kill, 72 hours post treatment. The method, then:
The efficacies of various nucleic acid backbone chemistries were investigated by delivering […] to cancer cells in organ culture using a collection of nanoparticles that were less than about 50 nm in diameter. Recurrent head neck tumors are typically small (1-2 cm), but based on volumetric scaling between in vitro tumor nests and mouse studies, it is estimated that estimate that a dose of 3 5 mg will be required to locally treat a 2 cm tumor. Various nucleic acid chemistries may reduce this amount by either enhancing binding affinity between the target mRNA and the antisense, using the antisense to bind to DNA instead of RNA, or increasing nuclease resistance (and half-life). […] Biological activity was assayed as growth inhibition using the MTT/WST assay in a 96 well format. Cells were seeded at 20,000 per well, treated 18 hours later, then assayed at 72 hours post treatment. Although the cells are resistant to conventional chemotherapeutic agents, cisplatin activity is shown for reference (black line). […] Additional formats screened but not shown were a phosphodiester/2OME chimeric and the siRNA format.

In series [1] the test system is hormone-insensitive PC3 cells. The series is described as follows: Growth inhibition in prostate carcinoma cells. The note with it: PC3, 5,000 cells per untreated well. The class given is cell-based. How it is done: (§1) In these studies, cells were seeded at 5,000 cells per untreated well.
Series [2] concerns hormone-sensitive Alva-41 prostate carcinoma cells. In words: Growth inhibition in prostate carcinoma cells. The note with it: Alva-41, 5,000 cells per untreated well. In kind it is cell-based, human. The method, then:
as §1

A further series relates to SCC-15. The series is described as follows: Growth inhibition in chemoresistant head neck cancer cell line. In kind it is cell-based, human. How it is done:
Antisense molecules were tested for growth inhibition against the chemoresistant head neck cancer cell line SCC-15 at 10,000 cells per well, the cells being pretreated with tenascin, with results as shown in FIG. 5B-C. Referring to FIG. 5B, PO refers to phosphodiester antisense referred to as asCK2 in Table 9 (SEQ ID NO 1), PO sense refers to phosphodiester sense sequence complementary to asCK2, siRNA refers to a duplex RNA sequence that is screened from the asCk2 sequence, 2OME RNA refers to a nucleic acid of the sequence SEQ ID NO 1 that is all RNA and is al methylated, and PO RNA refers to a proprietary chimeric molecule having the sequence of SEQ ID NO 1 but being a mixture of RNA and DNA and having phosphodiester and 2OME backbone. […] Because of it's capacity for being metabolized, the PO RNA construct within the context of a colloidal formulation will offer advantages in safety for delivery of cytotoxic constructs.
Referring to FIG. 5C, cisplatin TN/x s-50 refers to nanoparticles comprising cisplatin and a 1:1 w/w ratio of tenascin:dextran. Tn s-50 refers to nanoparticles comprising cisplatin and tenascin, asCK2 TN s-50 refers to nanoparticles comprising tenascin and asCK2 antisense of sequence SEQ ID NO 1, and free cisplatin refers to cisplatin added to the cell medium.

Series [3] relates to metastatic variant of Alva-41 prostate carcinoma cells. In words: Growth inhibition by nanoencapsulated cisplatin. The class given is cell-based, human. The note with it: 5,000 cells per well, 72 hours. How it is done:
Cisplatin was nanoencapsulated into the various candidate tumor binding agents as described previously and nanoparticles were compared for growth inhibition in a metastatic variant of Alva-41 prostate carcinoma cells and Ca-9-22. Formulas were tested in duplicate in two separate experiments. Results are illustrated for the prostate cell line in FIG. 5D. Referring to FIG. 5D, PEX-MMP-1/Cisplatin refers to s50 nanoparticles comprising cisplatin and the Recombinant Pex binding domain of membrane-associated Matrix Metalloproteinase-1 (see Bello et. al, Cancer Research (2001) 61: 8730-36); Tenascin/Cisplatin refers to s50 nanoparticles having tenascin and cisplatin, FN-PHSCN/Cisplatin refers to nanoparticles comprising the FN-PHSCN fragment and cisplatin, Osteonecetin/asCK2 refers to s50 nanoparticles comprising osteonectin and the asCK2 antisense sequence, galectin-3/cisplatin refers to s50 nanoparticles comprising galectin-3 and cisplatin, hyaluronan/cisplatin refers to s50 nanoparticles comprising hyaluronan and cisplatin, and naked cisplatin refers to the addition of free cisplatin to the cell medium. In these experiments cells were plated at 5,000 per well and followed for 72 hours. […] As a comparison, based on a standard male patient, an acceptable in vitro dose of cisplatin would correspond to about 10 μg/ml or 30 μM. […]

Consider 4 molecules from patent US20080220072A1, “BIOLOGIC MODULATIONS WITH NANOPARTICLES” (priority 2002, published 2008).

With “2-0 methyl RNA format: nucleic acid of the sequence SEQ ID NO 1 that is all RNA and methylated, in s50 nanoparticles (GTCCCGACATGTCAGACAGG; all 2'-O-methyl, backbone and T or U not given here; formulated in s50 nanoparticles)”, the “complete kill achieved in vitro” value in the series on cancer cells was “capacity for complete kill”. A word on the IC50: it is the midpoint of a concentration-inhibition curve. In the case of “SEQ ID NO 1: GTCCCGACATGTCAGACAGG; phosphodiester antisense 20mer to CK2α translation start site (antisense GTCCCGACATGTCAGACAGG; all phosphodiester, sugars by position and methylation of C not given here)”, the half-maximal inhibitory concentration (IC50) was 40 µM in series [1] and 15 µM in series [2].

With “PO RNA: chimeric molecule with sequence of SEQ ID NO 1, mixture of RNA and DNA, phosphodiester and 2OME backbone (antisense GTCCCGACATGTCAGACAGG; RNA/DNA chimera, phosphodiester and 2'-O-methyl, chemistry not fully specified)”, in the series with SCC-15 (SCC-15, 10,000 cells per well, pretreated with tenascin), the 50% inhibitory concentration (IC50) was determined as 3 µM.

As for `N.N.[Cl][Pt][Cl]` [free cisplatin, cisplatin, reference compound], in the series on SCC-15 (SCC-15, FIG. 5C), the “overall in vitro kill” value is “zero”. This molecule returned a 50% inhibitory concentration (IC50) in series [3] of 100 µM.
